Reference: paper PMC8305652, “Copper(II) Complexes Containing Natural Flavonoid Pomiferin Show Considerable In Vitro Cytotoxicity and Anti-inflammatory Effects” (International Journal of Molecular Sciences, 2021)

Columns and labels:
Assay type in all cases: cell-based, human
A2780 cells [1] = experiment: mitochondrial membrane potential, MITO-ID flow cytometry; conditions: A2780, 15 µM, 24 h; compared with cisplatin
Method: After 24 h, the cells were washed once with PBS (0.1 M, pH 7.4), detached with trypsin (0.25% in ethylenediaminetetraacetic acid (EDTA), Sigma-Aldrich), and resuspended in 500 µL of culture medium. Then the staining was performed using MITO-ID® Membrane potential detection kit (Enzo Life Sciences, Farmingdale, NY, USA) according to the manufacturer’s protocol and samples were measured in three independent experiments, each time in duplicates on BD FACSVerse flow cytometer (Becton Dickinson, Franklin Lakes, NJ, USA), while at least 10^4 events were recorded for each sample.

[2] = tested on: IκB and MAPKs p38, ERK1/2, JNK in THP-1 macrophages; experiment: IκB and MAPK signalling pathways, Western blot; conditions: 200 nM, 1 h pre-treatment, 30 min after LPS
Method: Macrophages derived from THP-1 cells were used to evaluate the influence of tested complexes on the signalling pathway leading to activation of transcription factors NF-κB and AP-1. To differentiate THP-1 monocytes into macrophages, the cells were stimulated with phorbol myristate acetate (PMA), as described above. The level of inhibitor of NF-κB (IĸB) and phosphorylation (activation) of mitogen-activated protein kinases (MAPKs) p38, ERK1/2, and JNK was determined in a way similar to that described previously. Above mentioned proteins were detected by the following primary antibodies: anti-IĸB-α at the dilution 1:500 (Cell Signalling, Danvers, MA, USA; products No. 4814), anti-phospho-SAPK/JNK at the dilution 1:500 (Cell Signalling; products No. 4668), anti-p44/42 MAPK (ERK1/2) at the dilution 1:1000 (Cell Signalling; products No. 4695), anti-phospho-p44/42 MAPK (ERK1/2) at the dilution 1:1000 (Cell Signalling; products No. 4370), anti-p38 MAPK at the dilution 1:1000 (Cell Signalling; products No. 9212), anti-phospho-p38 MAPK antibodies at the dilution 1:1000 (Cell Signalling; products No. 4511), anti-SAPK/JNK at a dilution of 1:250 (Sigma-Aldrich, product No. SAB4200176), and anti-β-actin at a dilution of 1:5000 (Abcam, Cambridge, UK; product No. 8226). […] The amount of bound secondary antibody was determined using ECL reagent (Bio-Rad, Hercules, CA, USA). […]

A2780 cells [3] = experiment: cell cycle analysis by flow cytometry; conditions: A2780, 15 µM, 24 h
Method: Human ovarian cancer cell line A2780 (Sigma, Darmstadt, Germany) were used for this study. Cells were cultivated at 37 °C under a 5% CO2 atmosphere in an RPMI 1640 medium (Sigma Aldrich, Darmstadt, Germany) supplemented with (the final concentrations in medium): L-glutamine (2 mM), fetal bovine serum (FBS, 10%) and PenStrep (5 U penicillin, 50 µg streptomycin/mL).
After 24 h, the cells were washed once with PBS (0.1 M, pH 7.4) and cell cycle analysis was performed according to the protocol of BD Cycletest^TM Plus DNA kit (Becton Dickinson, Franklin Lakes, NJ, USA). Measurements were performed using BD FACSVerse flow cytometer (Becton Dickinson, Franklin Lakes, NJ, USA) in 3 independent experiments, each done in duplicate, while at least 5 × 10^3 events were recorded for each sample.

osteosarcoma (HOS) = experiment: in vitro cytotoxicity, MTT assay; conditions: mean ± SD, at least three independent experiments
[4] = tested on: NF-κB in differentiated THP-1 macrophages; experiment: immunocytochemical analysis of NF-κB nuclear translocation; conditions: 200 nM, 1 h pre-treatment, 1 h LPS (1 µg/mL), fluorescence microscopy
Method: To differentiate the THP-1 monocytes to macrophages, phorbol myristate acetate (PMA) was used at the final concentration of 50 ng/mL. The cells were split into 8-well cell culture glass slides (SPL, Gyeonggi-do, South Korea) at a concentration of 3 × 10^5 cells/300 µL/well. Monocytes were differentiated by PMA treatment for 24 h and then the medium was changed. Macrophages were washed with PBS, transferred into a serum-free medium and incubated for 2 h. After 1 h pre-treatment with 5 (200 nM), prednisone (200 nM) or 0.1% DMF (v/v) solution used as a control, NF-κB nuclear translocation was triggered by the addition of LPS (1 µg/mL). The macrophages were washed with PBS and fixed with 4% formaldehyde 1 h later. Permeabilization was performed using 0.1% v/v Triton X-100 (Merck). After blocking with 3% bovine serum albumin (BSA; Merck, Darmstadt, Germany) dissolved in PBS, the primary antibody anti-NF-κB p65 (Abcam, Cambridge, UK, product No. ab16502) was added at a concentration of 2.5 µg/mL and incubated at 4 °C overnight. Then a secondary anti-rabbit antibody labelled by Alexa Fluor 488® (Cell Signalling, Danvers, MA, USA) product No. 4412, dilution 1:1500) was applied in dark at 4 °C for 1 h. […] The NF-κB migration activity was evaluated by fluorescent microscopy after the nail polish cured using the fluorescence microscope IX73 (Olympus, Tokyo, Japan).

Compound | damage of mitochondrial function (membrane potential) (A2780 cells [1]) | IκB and MAPK intracellular signalization [2] | cells in G2/M phase (A2780 cells [3]; control 20.1 ± 0.4%) [%] | IC50 (osteosarcoma (HOS)) [µM] | cells in the S phase of the cell cycle (A2780 cells [3]; untreated control 21.4 ± 0.8%) [%] | IC50 (osteosarcoma (HOS); Homo sapiens) [µM] | NF-κB nuclear translocation [4] | cells in G0/G1 phase (A2780 cells [3]; control 58.4 ± 0.5%) [%]
CC(C)=CCc1c2c(c3occ(-c4ccc(O)c(O)c4)c(=O)c3c1[O-])C=CC(C)(C)O2.Cc1ccnc(-c2cc(C)ccn2)c1.O.O.O=[N+]([O-])[O-].[Cu+2] [Complex 2, (3-(3,4-dihydroxyphenyl)-8,8-dimethyl-6-(3-methylbut-2-en-1-yl)-4H,8H-benzo[1,2-b:3,4-b′]dipyran-4-one-5-olato-κ^2O4:O5)(4,4′-dimethyl-2,2′-bipyridine–κ^2N:N)copper(II) nitrate dihydrate] | strong ability | did not affect the intracellular signalization | 21.9 ± 0.8 | 21.1 ± 1.6 | – | – | – | –
CC(C)=CCc1c2c(c3occ(-c4ccc(O)c(O)c4)c(=O)c3c1O)C=CC(C)(C)O2 [pomiferin, 3-(3,4-dihydroxyphenyl)-5-hydroxy-8,8-dimethyl-6-(3-methylbut-2-ene-1-yl)-4H,8H-benzo[1,2-b:3,4-b′]dipyran-4-one] | strong ability | – | – | – | 26 ± 0.9 | 20.7 ± 0.5 | – | –
CC(C)=CCc1c2c(c3occ(-c4ccc(O)c(O)c4)c(=O)c3c1[O-])C=CC(C)(C)O2.CO.O=[N+]([O-])[O-].[Cu+2].c1ccc(-c2ccnc3c2ccc2c(-c4ccccc4)ccnc23)cc1 [Complex 4, (3-(3,4-dihydroxyphenyl)-8,8-dimethyl-6-(3-methylbut-2-en-1-yl)-4H,8H-benzo[1,2-b:3,4-b′]dipyran-4-one-5-olato-κ^2O4:O5)(4,7-diphenyl-1,10-phenanthroline–κ^2N:N)copper(II) nitrate methanol solvate] | strong ability | – | – | – | – | – | blocked the nuclear translocation | 62.1 ± 1.2
(3-(3,4-dihydroxyphenyl)-8,8-dimethyl-6-(3-methylbut-2-en-1-yl)-4H,8H-benzo[1,2-b:3,4-b′]dipyran-4-one-5-olato-κ^2O4:O5)(dipyrido[3,2-a:2′,3′-c]phenazine–κ^2N4:N5)copper(II) nitrate methanol solvate [Complex 5] | – | did not affect the intracellular signalization | – | 2.4 ± 0.9 | – | – | the NF-κB levels in the nucleus decreased | –
